Test system: 276233-004-R-J1-PDC complex spheroid viability
Assay: Anticancer human tumor 276233-004-R-J1-PDC patient-derived colon adenocarcinoma cell line growth inhibition [GQUAD]
Settings: for IC50: curve of first compound; for viability, T/C: stronger effect = lower value
In short: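 Tumor cells were grown as complex spheroids with HUVEC endothelial cells and mesenchymal stem cells as stroma. G-quadruplex stabilizers were combined with targeted agents over half-log dilutions from near the clinical Cmax, or from 10 microM.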
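Also: spheroids exposed to drugs for seven days.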
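For viability, T/C in this document: 100% = DMSO vehicle control viability.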

CC(=O)O[C@H]1C(=O)[C@@]2(C)[C@H]([C@H](OC(=O)c3ccccc3)[C@]3(O)C[C@H](OC(=O)[C@H](O)[C@@H](NC(=O)c4ccccc4)c4ccccc4)C(C)=C1C3(C)C)[C@]1(OC(C)=O)CO[C@@H]1C[C@@H]2O + Cc1[nH]c2ccc(F)cc2c1-c1nc2c3cccnc3c3ncccc3c2[nH]1
IC50 (second compound 0.0316 µM): > 10000 nM | IC50 (second compound 0.1 µM): > 10000 nM | IC50 (second compound 0.316 µM): > 10000 nM | IC50 (second compound 1 µM): 341 nM | IC50 (second compound 3.16 µM): < 31.6 nM | IC50 (second compound 10 µM): < 31.6 nM | viability, T/C (second compound 0.0316 µM, first compound 0.0316 µM): 82.4% | viability, T/C (second compound 0.0316 µM, first compound 0.1 µM): 72% | viability, T/C (second compound 0.0316 µM, first compound 0.316 µM): 68.8% | viability, T/C (second compound 0.0316 µM, first compound 1 µM): 81.9% | viability, T/C (second compound 0.0316 µM, first compound 3.16 µM): 100% | viability, T/C (second compound 0.0316 µM, first compound 10 µM): 70.9% | viability, T/C (second compound 0.1 µM, first compound 0.0316 µM): 66.3% | viability, T/C (second compound 0.1 µM, first compound 0.1 µM): 77.2% | viability, T/C (second compound 0.1 µM, first compound 0.316 µM): 68.7% | viability, T/C (second compound 0.1 µM, first compound 1 µM): 77.3% | viability, T/C (second compound 0.1 µM, first compound 3.16 µM): 64.2% | viability, T/C (second compound 0.1 µM, first compound 10 µM): 64.9% | viability, T/C (second compound 0.316 µM, first compound 0.0316 µM): 72.6% | viability, T/C (second compound 0.316 µM, first compound 0.1 µM): 65.4% | viability, T/C (second compound 0.316 µM, first compound 0.316 µM): 57.1% | viability, T/C (second compound 0.316 µM, first compound 1 µM): 53.5% | viability, T/C (second compound 0.316 µM, first compound 3.16 µM): 62.4% | viability, T/C (second compound 0.316 µM, first compound 10 µM): 47.8% | viability, T/C (second compound 1 µM, first compound 0.0316 µM): 49.7% | viability, T/C (second compound 1 µM, first compound 0.1 µM): 57% | viability, T/C (second compound 1 µM, first compound 0.316 µM): 55.4% | viability, T/C (second compound 1 µM, first compound 1 µM): 39.2% | viability, T/C (second compound 1 µM, first compound 3.16 µM): 45.8% | viability, T/C (second compound 1 µM, first compound 10 µM): 51.8% | viability, T/C (second compound 3.16 µM, first compound 0.0316 µM): 20.4% | viability, T/C (second compound 3.16 µM, first compound 0.1 µM): 14.5% | viability, T/C (second compound 3.16 µM, first compound 0.316 µM): 15.4% | viability, T/C (second compound 3.16 µM, first compound 1 µM): 12.3% | viability, T/C (second compound 3.16 µM, first compound 3.16 µM): 13.6% | viability, T/C (second compound 3.16 µM, first compound 10 µM): 12.1% | viability, T/C (second compound 10 µM, first compound 0.0316 µM): 42.2% | viability, T/C (second compound 10 µM, first compound 0.1 µM): 40.1% | viability, T/C (second compound 10 µM, first compound 0.316 µM): 38.5% | viability, T/C (second compound 10 µM, first compound 1 µM): 28.1% | viability, T/C (second compound 10 µM, first compound 3.16 µM): 30.4% | viability, T/C (second compound 10 µM, first compound 10 µM): 33.5%
